# Results published in US9593110B2, “Neprilysin inhibitors” (Theravence Biopharma R&D IP, LLC, priority 2014, dated 2017).
# Molecular target: human NEP (Homo sapiens (Human), UniProt P08473)
# Assay: In vitro enzyme inhibition assay at human NEP
# Conditions: pKi, recombinant human NEP, fluorogenic peptide substrate, 37° C.
# Sequence of human NEP (P08473 52-750): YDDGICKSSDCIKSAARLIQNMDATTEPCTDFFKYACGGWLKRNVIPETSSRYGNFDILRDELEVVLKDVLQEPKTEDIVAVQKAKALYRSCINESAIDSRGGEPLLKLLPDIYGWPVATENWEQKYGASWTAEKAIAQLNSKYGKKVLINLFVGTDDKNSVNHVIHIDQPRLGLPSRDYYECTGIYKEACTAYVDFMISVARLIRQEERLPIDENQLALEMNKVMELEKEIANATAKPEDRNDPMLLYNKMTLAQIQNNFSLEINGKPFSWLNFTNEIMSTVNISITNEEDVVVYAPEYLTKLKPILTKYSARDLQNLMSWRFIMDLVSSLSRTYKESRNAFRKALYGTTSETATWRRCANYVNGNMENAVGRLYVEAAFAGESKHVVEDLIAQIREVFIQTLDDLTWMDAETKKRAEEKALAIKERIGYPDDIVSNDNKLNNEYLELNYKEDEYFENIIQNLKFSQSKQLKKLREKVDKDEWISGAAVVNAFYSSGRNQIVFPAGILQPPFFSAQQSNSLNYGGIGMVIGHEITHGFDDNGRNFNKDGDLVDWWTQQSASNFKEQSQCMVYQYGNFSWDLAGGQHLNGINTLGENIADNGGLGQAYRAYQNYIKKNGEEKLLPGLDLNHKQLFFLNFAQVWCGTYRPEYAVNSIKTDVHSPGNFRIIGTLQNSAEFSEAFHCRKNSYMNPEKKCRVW
row,SMILES,Ki
1,"O=C(N[C@H](Cc1ccc(-c2cc(Cl)ccc2F)cc1)C[C@@H](CN1CC[C@H]1CO)C(=O)O)c1cnn[nH]1 [Example 95b, (2S,4S)-5-(5′-Chloro-2′-fluorobiphenyl-4-yl)-2-((S)-2-hydroxymethyl-azetidin-1-ylmethyl)-4-[(3H-[1,2,3]triazole-4-carbonyl)amino]pentanoic Acid]",≤ 1 nM
2,"CC(C)c1coc(C(=O)N[C@H](Cc2ccc(-c3cc(Cl)ccc3F)cc2)C[C@@H](NC(=O)CN)C(=O)O)n1 [Example 34-1, (2R,4R)-2-(2-Aminoacetylamino)-5-(5′-chloro-2′-fluorobiphenyl-4-yl)-4-[(4-isopropyloxazole-2-carbonyl)amino]pentanoic acid]",1.26 to 3.16 nM
3,"CC(C)c1coc(C(=O)N[C@H](Cc2ccc(-c3cc(Cl)ccc3F)cc2Cl)C[C@H](N)C(=O)O)n1 [Example 18-1, (2S,4R)-2-Amino-5-(3,5′-dichloro-2′-fluorobiphenyl-4-yl)-4-[(4-isopropyloxazole-2-carbonyl)amino]pentanoic acid]",3.16 to 10 nM
4,"O=C(N[C@H](Cc1ccc(-c2cc(Cl)ccc2F)cc1)CC(C(=O)O)c1cccnc1)c1cnn[nH]1 (single isomer, unassigned) [Example 77a]",3.16 to 10 nM
5,"O=C(N[C@H](Cc1ccc(-c2cc(Cl)ccc2F)cc1)CC(C(=O)O)c1ccsc1)c1cnn[nH]1 (stereo in doubt) [Example 79, (S)-5-(5′-Chloro-2′-fluorobiphenyl-4-yl)-2-thiophen-3-yl-4-[(3H-[1,2,3]triazole-4-carbonyl)amino]pentanoic Acid]",1.26 to 3.16 nM
6,"CC(C)c1coc(C(=O)N[C@H](Cc2ccc(-c3cc(Cl)ccc3F)cc2)C[C@@H](NC(=O)C(C)(C)N)C(=O)O)n1 [Example 35, (2R,4R)-2-(2-Amino-2-methylpropionylamino)-5-(5′-chloro-2′-fluorobiphenyl-4-yl)-4-[(4-isopropyloxazole-2-carbonyl)amino]pentanoic Acid]",3.16 to 10 nM
7,"CC(C)c1coc(C(=O)N[C@H](Cc2ccc(-c3cc(Cl)ccc3F)cc2)C[C@@H](CCN)C(=O)O)n1 [Example 24-1, (2R,4S)-2-(2-Aminoethyl)-5-(5′-chloro-2′-fluorobiphenyl-4-yl)-4-[(4-isopropyloxazole-2-carbonyl)amino]pentanoic acid]",3.16 to 10 nM
8,O=C(N[C@H](Cc1ccc(-c2cc(Cl)ccc2F)cc1)C[C@@H](CN1CC[C@@H]1CO)C(=O)O)c1cnn[nH]1 [Example 94b],≤ 1 nM
9,"O=C(N[C@H](Cc1ccc(-c2cc(Cl)ccc2F)cc1)C[C@@H](CN1CCC1)C(=O)O)c1cnn[nH]1 [Example 84b, (2S,4S)-2-Azetidin-1-ylmethyl-5-(5′-chloro-2′-fluorobiphenyl-4-yl)-4-[(3H-[1,2,3]triazole-4-carbonyl)amino]pentanoic Acid]",≤ 1 nM
10,"O=C(N[C@H](Cc1ccc(-c2cc(Cl)ccc2F)cc1)C[C@@H](NC(=O)[C@@H]1CCCN1)C(=O)O)c1cnn[nH]1 [Example 55, (2R,4R)-5-(5′-Chloro-2′-fluorobiphenyl-4-yl)-2-[((S)-pyrrolidine-2-carbonyl)amino]-4-[(3H-[1,2,3]triazole-4-carbonyl)amino]pentanoic Acid]",3.16 to 10 nM
11,"CC(=O)N1CCC(C(C[C@@H](Cc2ccc(-c3ccccc3)cc2)NC(=O)c2cnn[nH]2)C(=O)O)CC1 (stereo in doubt) [Example 60, (S)-2-(1-Acetylpiperidin-4-yl)-5-biphenyl-4-yl-4-[(3H-[1,2,3]triazole-4-carbonyl)amino]pentanoic Acid]",3.16 to 10 nM

# Results, then the compound that gave them:
row,Ki,SMILES
1,≤ 1 nM,"N[C@H](C[C@@H](Cc1ccc(-c2cc(Cl)ccc2F)cc1)NC(=O)c1c[nH]nn1)C(=O)O [Example 13, (2R,4R)-2-Amino-5-(5′-chloro-2′-fluorobiphenyl-4-yl)-4-[(1H-[1,2,3]triazole-4-carbonyl)amino]pentanoic Acid]"
2,1.26 to 3.16 nM,"N[C@H](C[C@@H](Cc1ccc(-c2cc(Cl)ccc2F)cc1)NC(=O)c1coc(C2CC2)n1)C(=O)O [Example 16-4, (2R,4R)-2-Amino-5-(5′-chloro-2′-fluorobiphenyl-4-yl)-4-[(2-cyclopropyloxazole-4-carbonyl)amino]pentanoic acid]"
3,3.16 to 10 nM,"N[C@@H](C[C@@H](Cc1ccc(-c2cc(Cl)ccc2F)cc1)NC(=O)c1noc(=O)[nH]1)C(=O)O [Example 16-15, (2S,4R)-2-Amino-5-(5′-chloro-2′-fluorobiphenyl-4-yl)-4-[(5-oxo-4,5-dihydro-[1,2,4]oxadiazole-3-carbonyl)amino]pentanoic acid]"
4,≤ 1 nM,"COC1CN(C[C@@H](C[C@@H](Cc2ccc(-c3cc(Cl)ccc3F)cc2)NC(=O)c2c[nH]nn2)C(=O)O)C1 [Example 102c, (2R,4S)-5-(5′-Chloro-2′-fluorobiphenyl-4-yl)-2-(3-methoxyazetidin-1-ylmethyl)-4-[(1H-[1,2,3]triazole-4-carbonyl)amino]pentanoic Acid]"
5,3.16 to 10 nM,"N[C@H](C[C@@H](Cc1ccc(-c2cc(Cl)ccc2F)cc1Cl)NC(=O)c1cc(C2CC2)on1)C(=O)O [Example 18-9, (2R,4R)-2-Amino-4-[(5-cyclopropyl-isoxazole-3-carbonyl)-amino]-5-(3,5′-dichloro-2′-fluorobiphenyl-4-yl)pentanoic acid]"

# Same assay, conditions: recombinant human NEP, fluorogenic peptide substrate, 37° C.
row,SMILES,pKi
1,"CC(C)[C@H](N)C(=O)N[C@H](C[C@@H](Cc1ccc(-c2cc(Cl)ccc2F)cc1)NC(=O)c1cnn[nH]1)C(=O)O [Example 39-1, (2R,4R)-2-((S)-2-Amino-3-methylbutyrylamino)-5-(5′-chloro-2′-fluorobiphenyl-4-yl)-4-[(3H-[1,2,3]triazole-4-carbonyl)amino]pentanoic acid]",≧9.0
2,"COc1cnc(C(=O)N[C@H](Cc2ccc(-c3cc(Cl)ccc3F)cc2Cl)C[C@@H](N)C(=O)O)o1 [Example 18-11, (2R,4R)-2-Amino-5-(3,5′-dichloro-2′-fluoro-biphenyl-4-yl)-4-[(5-methoxyoxazole-2-carbonyl)amino]pentanoic acid]",≧9.0
3,"CCOC[C@H](C[C@@H](Cc1ccc(-c2cccc(Cl)c2)cc1)NC(=O)c1cc(OC)no1)C(=O)O [Example 9-4, (2S,4S)-5-(3′-Chlorobiphenyl-4-yl)-2-ethoxymethyl-4-[(3-methoxy-isoxazole-5-carbonyl)amino]pentanoic acid]",≧9.0
4,"COC[C@H](C[C@@H](Cc1ccc(-c2cc(Cl)ccc2F)cc1)NC(=O)c1cc(C(C)=O)n[nH]1)C(=O)O [Example 2-4, (2S,4S)-4-[(5-Acetyl-2H-pyrazole-3-carbonyl)-amino]-5-(5′-chloro-2′-fluorobiphenyl-4-yl)-2-methoxymethylpentanoic acid]",≧9.0
5,"CCOC[C@H](C[C@@H](Cc1ccc(-c2cc(Cl)ccc2F)cc1)NC(=O)c1ncccn1)C(=O)O [Example 7-11, (2S,4S)-5-(5′-Chloro-2′-fluorobiphenyl-4-yl)-2-ethoxymethyl-4-[(pyrimidine-2-carbonyl)amino]pentanoic acid]",≧9.0
6,"N[C@H](C[C@@H](Cc1ccc(-c2cc(Cl)ccc2F)cc1)NC(=O)c1nc2cc(Cl)ccn2n1)C(=O)O [Example 16-25, (2R,4R)-2-Amino-5-(5′-chloro-2′-fluorobiphenyl-4-yl)-4-[(7-chloro-[1,2,4]triazolo[1,5-a]pyridine-2-carbonyl)amino]pentanoic acid]",≧9.0
7,"COC(=O)NCC(=O)N[C@H](C[C@@H](Cc1ccc(-c2cc(Cl)ccc2F)cc1)NC(=O)c1c[nH]nn1)C(=O)O [Example 67, (2R,4R)-5-(5′-Chloro-2′-fluorobiphenyl-4-yl)-2-(2-methoxycarbonylaminoacetylamino)-4-[(1H-[1,2,3]triazole-4-carbonyl)amino]pentanoic Acid]",≧9.0

# Other lines, results leading:
row,pKi,SMILES
1,≧9.0,"CN(C)C(=O)c1cc(C(=O)N[C@H](Cc2ccc(-c3cc(Cl)ccc3F)cc2)C[C@@H](N)C(=O)O)[nH]n1 [Example 16-18, (2R,4R)-2-Amino-5-(5′-chloro-2′-fluorobiphenyl-4-yl)-4-[(5-dimethylcarbamoyl-2H-pyrazole-3-carbonyl)amino]pentanoic acid]"
2,≧9.0,"COC(=O)N[C@H](C[C@@H](Cc1ccc(-c2cc(Cl)ccc2F)cc1)NC(=O)c1coc(=O)[nH]1)C(=O)O [Example 30-11, (2R,4R)-5-(5′-Chloro-2′-fluorobiphenyl-4-yl)-2-methoxycarbonylamino-4-[(2-oxo-2,3-dihydro-oxazole-4-carbonyl)amino]pentanoic acid]"
3,≧9.0,"CC(C)(N)[C@H](C[C@@H](Cc1ccc(-c2cc(Cl)ccc2F)cc1)NC(=O)c1cnn[nH]1)C(=O)O [Example 104, (2S,4S)-2-(1-Amino-1-methylethyl)-5-(5′-chloro-2′-fluorobiphenyl-4-yl)-4-[(3H-[1,2,3]triazole-4-carbonyl)amino]pentanoic Acid]"
4,≧9.0,"COC(=O)N[C@H](C[C@@H](Cc1ccc(-c2cc(Cl)ccc2F)cc1)NC(=O)c1coc(C2CC2)n1)C(=O)O [Example 30-5, (2R,4R)-5-(5′-Chloro-2′-fluorobiphenyl-4-yl)-4-[(2-cyclopropyl-oxazole-4-carbonyl)amino]-2-methoxycarbonylaminopentanoic acid]"
5,≧9.0,"COC(=O)N[C@H](C[C@@H](Cc1ccc(-c2cc(Cl)ccc2F)cc1)NC(=O)c1c[nH]c(=O)o1)C(=O)O [Example 30-10, (2R,4R)-5-(5′-Chloro-2′-fluorobiphenyl-4-yl)-2-methoxycarbonylamino-4-[(2-oxo-2,3-dihydro-oxazole-5-carbonyl)amino]pentanoic acid]"
6,≧9.0,"N[C@H](C[C@@H](Cc1ccc(-c2cc(Cl)ccc2F)cc1)NC(=O)c1nn(-c2ccccc2)c(=O)[nH]1)C(=O)O [Example 16-35, (2R,4R)-2-Amino-5-(5′-chloro-2′-fluorobiphenyl-4-yl)-4-[(5-oxo-1-phenyl-4,5-dihydro-1H-[1,2,4]triazole-3-carbonyl)amino]p entanoic acid]"
7,≧9.0,"NC(=O)C1CN(C[C@H](C[C@@H](Cc2ccc(-c3cc(Cl)ccc3F)cc2)NC(=O)c2cnn[nH]2)C(=O)O)C1 [Example 96b, (2S,4S)-2-(3-Carbamoylazetidin-1-ylmethyl)-5-(5′-chloro-2′-fluorobiphenyl-4-yl)-4-[(3H-[1,2,3]triazole-4-carbonyl)amino]pentanoic Acid]"
